Read-outs that look alike come from different tables or passages of the source.
Tests used:
[1] = tested on: HeLa cells; experiment: MTT cell proliferation assay, HeLa cells; assay type: cell-based; details: Homo sapiens, MTT, 24 h, read-out: IC50 HeLa cells (24 h)
Protocol: (§1) The effects of tanshinones (DS−1 to DS−5) on the proliferation of U−2 OS cells, HeLa cells, and NRK−49F cells were measured by the classical MTT method with minor modifications as follows. Cells were seeded at 5000 per well in 96-well plates, with each group being repeated in 5 wells, and were incubated for 12 h. DS−1 to DS−5 were added at gradient concentrations, then incubated for 24 and 48 h, respectively. Then, 20 μL MTT solution (solved in PBS, 5 mg/mL) was added to every well, and the cells were further incubated at 37 °C for 4 h until a purple precipitate was visible. The plate was centrifuged at 1000 rpm for 1 min; the supernatant was suctioned, and 150 μL of DMSO was added per well; the plate was shaken on a shaker protected from light for 15 min. We placed the plate in an enzyme marker and measured the absorbance values at a 490 nm wavelength.

[2] = tested on: NRK−49F cells; experiment: MTT cell proliferation assay, NRK−49F cells; assay type: cell-based, rat; details: MTT, 24 h, normal rat kidney cells, read-out: IC50 NRK−49F cells (24 h)
Protocol: as §1

[3] = tested on: U−2 OS cells; experiment: MTT cell proliferation assay, U−2 OS cells; assay type: cell-based; details: Homo sapiens, U2OS, MTT
Protocol: as §1

[4] = 24 h, read-out: IC50 U−2 OS cells (24 h)
[5] = 48 h, read-out: IC50 U−2 OS cells (48 h)

Compound | IC50 [1] | IC50 [2] | IC50 [3, 4] | IC50 [3, 5]
C[C@H]1COC2=C1C(=O)C(=O)c1c2ccc2c1CCCC2(C)C [DS−2, Cryptotanshinone] | 52.1 ± 3.2 µM | 35.4 ± 3.25 µM | 47.8 ± 4.96 µM | 25.6 ± 0.81 µM
Cc1coc2c1C(=O)C(=O)c1c-2ccc2c(C)cccc12 [DS−3, Tanshinone I] | 20.9 ± 2.81 µM | 108 ± 28.9 µM | 17.8 ± 1.03 µM | 4.54 ± 1 µM
CC1=CCCc2c1ccc1c2C(=O)C(=O)c2c(C)coc2-1 [DS−4, 1,2-Dihydrotanshinquinone] | 25 ± 2.03 µM | 31.8 ± 1.59 µM | 22.1 ± 1.31 µM | 5.89 ± 0.4 µM
Cc1coc2c1C(=O)C(=O)c1c-2ccc2c1CCCC2(C)C [DS−5, Tanshinone IIA] | 32.1 ± 1.94 µM | > 50 µM | 25.4 ± 1.43 µM | 5.91 ± 1.08 µM
